Test results from patent publication US20240066003A1, “NEURODEVELOPMENTAL DISORDER THERAPY” (Anavex Life Sciences Corp., priority 2016, published 2024).

Columns and labels:
[1] = Body weight of Mecp2 HET mice under chronic dosing; format: in vivo; details: 30 mg/kg p.o. daily, 6.5 weeks after dosing began; Treatment×Age effect p<0.001
Procedure: Studies employed wild type (WT) mice and heterozygous MECP2knockout mice (HET) All mice were provided by Jackson Laboratory, Bar Harbor, Maine. HET mice were Bird mice (Jackson Laboratories, Bar Harbor, ME, B6.129P2(C)-Mecp2^tm1.1Bird/Stock Number: 003890) were obtained by crossing het females with wild type (WT) males (C57B/6J). […] Mecp2 females testing at ˜8 and ˜12 weeks of age WT—vehicle (0.25% MC/dH2O) HET—vehicle (0.25% MC/dH2O) HET—A2-733 (10 mg/kg) HET—A2-733 (30 mg/kg) Chronic dosing (p.o.) daily, starting at ˜5.5 weeks of age and continuing through the 12-week behavioral testing time point 60 min pre-treatment during behavioral testing. […] FIG. 1 There was a significant Treatment×Age effect (p<0.001), where mice treated with A2-733 (30 mg/kg) weighed less than vehicle-treated mutant mice 6.5 weeks after dosing began.

[2] = system: heterozygous MECP2knockout mice (HET); assay: Clasping of hind legs; format: in vivo; details: 8 weeks of age; 30 mg/kg p.o. daily
Procedure: Studies employed wild type (WT) mice and heterozygous MECP2knockout mice (HET) All mice were provided by Jackson Laboratory, Bar Harbor, Maine. HET mice were Bird mice (Jackson Laboratories, Bar Harbor, ME, B6.129P2(C)-Mecp2^tm1.1Bird/Stock Number: 003890) were obtained by crossing het females with wild type (WT) males (C57B/6J). […] Mecp2 females testing at ˜8 and ˜12 weeks of age WT—vehicle (0.25% MC/dH2O) HET—vehicle (0.25% MC/dH2O) HET—A2-733 (10 mg/kg) HET—A2-733 (30 mg/kg) Chronic dosing (p.o.) daily, starting at ˜5.5 weeks of age and continuing through the 12-week behavioral testing time point 60 min pre-treatment during behavioral testing. Mice are lifted gently by the tail with front limbs remaining on surface. Clasping of hind legs is noted (normal is a spread in the hind legs).

[3] = system: heterozygous MECP2knockout mice (HET); assay: Startle/PPI; format: in vivo
Procedure: Studies employed wild type (WT) mice and heterozygous MECP2knockout mice (HET) All mice were provided by Jackson Laboratory, Bar Harbor, Maine. HET mice were Bird mice (Jackson Laboratories, Bar Harbor, ME, B6.129P2(C)-Mecp2^tm1.1Bird/Stock Number: 003890) were obtained by crossing het females with wild type (WT) males (C57B/6J). […] Mecp2 females testing at ˜8 and ˜12 weeks of age WT—vehicle (0.25% MC/dH2O) HET—vehicle (0.25% MC/dH2O) HET—A2-733 (10 mg/kg) HET—A2-733 (30 mg/kg) Chronic dosing (p.o.) daily, starting at ˜5.5 weeks of age and continuing through the 12-week behavioral testing time point 60 min pre-treatment during behavioral testing. The acoustic startle measures an unconditioned reflex response to external auditory stimulation. Mice are placed in the prepulse inhibition (PPI) chambers for a 5 min session of white noise (70 dB) habituation. Then the session starts with a habituation block of 6 presentations of the startle stimulus alone, followed by 10 PPI blocks of 6 different types of trials [null (no stimuli), startle (120 dB), startle plus prepulse (4, 8 and 12 dB over background noise i.e. 74, 78 or 82 dB) and prepulse alone (82 dB)] presented at random within each block. The amount of inhibition of the normal startle is determined and expressed as a percentage of the basic startle response (from startle alone trials), excluding the startle response of the first habituation block.

Rett syndrome [4] = assay: Example 1 breathing variability in Rett syndrome patient; format: in vivo, human; details: person, oral 4 mg daily for 10 days
Procedure: A person presenting with Rett syndrome is administered oral doses of A2-73 at 4 mg daily for 10 days. On presentation, their breathing is abnormal. Their mean breaths per minute is calculated to assess breathing variability.

Rett syndrome [5] = assay: Example 2 cardiac pulse rate in Rett syndrome patient; format: in vivo, human; details: person, oral 20 mg daily for 5 days
Text: A person presents with Rett syndrome. Their real time cardiac pulse rate is monitored. Prior to commencing therapy, their heart rate is 49 beats per minute with substantial variability.

Angelman syndrome = assay: Example 5 sleep and seizures in Angelman syndrome patient; format: in vivo, human; details: person, oral 30 mg/day, after 15 days
Procedure: A person presents with Angelman syndrome. They experience disturbed sleep and frequent seizures prior to commencing therapy. They begin treatment with oral doses of A2-73 at 30 mg/day.

Williams syndrome = assay: Example 6 weight gain in Williams syndrome patient; format: in vivo, human; details: person, i.v. 5 mg every other day, after 60 days
Procedure: A person presents with Williams syndrome. […] They begin treatment with i.v. doses of A2-73 at 5 mg every other day.

Smith—Magenis syndrome = assay: Example 7 sleep in Smith-Magenis syndrome patient; format: in vivo, human; details: person, oral 10 mg/day, after 15 days
Procedure: A person presents with Smith—Magenis syndrome. They experience disturbed sleep. They begin treatment with oral doses of A2-73 at 10 mg/day.

[6] = system: relapsing-remitting multiple sclerosis; assay: Example 9 gadolinium-enhancing MRI lesions in relapsing-remitting multiple sclerosis patient; format: in vivo, human; details: person, oral 30 mg every other day for 3 months, up to month 6
Procedure: A person presents with relapsing-remitting multiple sclerosis. They begin treatment with oral doses of A2-73 at 30 mg every other day for 3 months.

[7] = system: muscarinic acetylcholine receptors; details: believed to bind; cited from earlier work
[8] = system: amyloid β25-35 peptide (Aβ25-35) injected mice; details: cited from earlier work

CN(C)CC1CCOC1(c1ccccc1)c1ccccc1.Cl (centres unmarked) [A2-73, tetrahydro-N,N-dimethyl-2,2-diphenyl-3-furanmethanamine hydrochloride]
body weight vs vehicle-treated mutant mice [1]: weighed less
clasping vs vehicle-treated mutant mice [2]: clasped less
PPI, treatment differences ([3]; 8 weeks of age): No treatment differences
startle response vs vehicle-treated mutant mice ([3]; 8 weeks of age, 30 mg/kg p.o. daily): increased startle response
startle response vs vehicle-treated mutant mice, outliers removed ([3]; 12 weeks of age, 30 mg/kg, outliers removed, p<0.01): increased startle
startle response, treatment effect ([3]; 12 weeks of age, all data, p<0.08): trend of a treatment effect
PPI treatment interaction, post hoc ([3]; 12 weeks of age, interaction p<0.05): did not reveal any significant post hoc differences
breathing variability (breaths/minute) (Rett syndrome [4]): significantly reduced
heart rate variability (Rett syndrome [5]): variability is reduced
average heart rate (Rett syndrome [5]; 49 beats per minute before therapy): 75 beats per minutes
reduction of instances of seizure (Angelman syndrome): 50%
sleep (Angelman syndrome): markedly less disturbed
weight gain (Williams syndrome): 10%
sleep (Smith—Magenis syndrome): markedly less disturbed
number of total gadolinium-enhancing lesions on monthly brain MRI [6]: significantly lower number
affinity for muscarinic acetylcholine receptors [7]: low micromolar range
Aβ25-35-induced P-Akt decrease and P-GSK-3β increase ([8]; Lahmy et al. 2013): blocked
hyperphosphorylation of Tau on physiological (AT-8) and pathological (AT-100) epitopes ([8]; in the dose-range tested): attenuated
oxidative stress, caspases induction, cellular loss and learning and memory deficits ([8]; mice one week after the i.v. injection of oligomeric Aβ25-35 (Villard et al. 2011)): attenuating
Aβ25-35-induced endogenous Aβ1-42 seeding ([8]; mouse, in vivo): decreasing
